Data: ChEMBL document CHEMBL1149526, “Synthesis and SAR of selective benzothiophene, benzofuran, and indole-based peroxisome proliferator-activated receptor delta agonists” (Bioorg Med Chem Lett, 2007)

Legend:
[1] = biological target: T1, Peroxisome proliferator-activated receptor delta (Homo sapiens, UniProt Q03181)
T1 sequence (Q03181 whole entry): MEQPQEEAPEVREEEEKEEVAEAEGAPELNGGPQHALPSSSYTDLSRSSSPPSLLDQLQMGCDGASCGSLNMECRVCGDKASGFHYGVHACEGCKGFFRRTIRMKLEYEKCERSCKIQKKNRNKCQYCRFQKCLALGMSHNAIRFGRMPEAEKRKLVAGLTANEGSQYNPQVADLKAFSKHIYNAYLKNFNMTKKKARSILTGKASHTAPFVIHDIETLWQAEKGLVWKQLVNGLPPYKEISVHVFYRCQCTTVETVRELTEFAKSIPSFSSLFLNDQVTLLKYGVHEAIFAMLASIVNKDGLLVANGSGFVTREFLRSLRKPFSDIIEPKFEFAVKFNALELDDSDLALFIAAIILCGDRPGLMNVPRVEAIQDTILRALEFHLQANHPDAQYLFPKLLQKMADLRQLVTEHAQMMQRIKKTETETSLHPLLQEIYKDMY

[2] = biological target: T1, Peroxisome proliferator-activated receptor delta; assay type: functional, cell-based, HepG2
[3] = biological target: T2, Peroxisome proliferator-activated receptor alpha (Homo sapiens, UniProt Q07869)
T2 sequence (Q07869 whole entry): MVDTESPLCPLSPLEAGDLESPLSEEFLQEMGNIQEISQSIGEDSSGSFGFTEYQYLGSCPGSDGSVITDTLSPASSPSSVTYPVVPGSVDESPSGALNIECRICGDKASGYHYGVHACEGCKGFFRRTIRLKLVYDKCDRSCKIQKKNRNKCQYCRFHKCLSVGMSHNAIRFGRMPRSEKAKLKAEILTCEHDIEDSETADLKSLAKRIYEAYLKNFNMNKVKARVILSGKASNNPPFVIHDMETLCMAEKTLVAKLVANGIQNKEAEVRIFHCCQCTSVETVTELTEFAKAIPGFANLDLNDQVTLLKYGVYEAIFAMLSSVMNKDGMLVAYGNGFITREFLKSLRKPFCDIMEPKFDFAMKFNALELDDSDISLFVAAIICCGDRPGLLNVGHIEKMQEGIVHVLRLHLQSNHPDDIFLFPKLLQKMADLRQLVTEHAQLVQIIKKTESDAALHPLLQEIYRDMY

Row | IC50 [1] [nM] | EC50 [2] [nM] | IC50 [3] [nM] | SMILES
1 | 244 | 2230 | 7860 | O=C(O)Cc1csc2cc(OCc3ccccc3COc3ccc(C(F)(F)F)cc3)ccc12
2 | – | – | 2500 | O=C(O)Cc1coc2cc(OCc3cccc(COc4ccc(C(F)(F)F)cc4)c3)ccc12
3 | 6.8 | 223 | 550 | Cc1nc(C(F)(F)F)sc1COc1ccc2c(ccn2CC(=O)O)c1
4 | 2.8 | 4 | 172 | Cc1nc(C(F)(F)F)sc1CSc1ccc2c(ccn2CC(=O)O)c1
5 | 58 | 227 | 1040 | Cc1nc(-c2ccc(C(F)(F)F)cc2)sc1COc1cc(Cl)c2c(CC(=O)O)csc2c1
6 | – | – | 229 | O=C(O)Cc1csc2cc(OCc3ccc(COc4ccc(C(F)(F)F)cc4)cc3)ccc12
7 | – | – | 4680 | Cc1cc2c(CC(=O)O)csc2cc1OCc1ccccc1COc1ccc(C(F)(F)F)cc1
8 | 734 | 3080 | > 10000 | O=C(O)Cn1ccc2cc(OCc3ccccc3COc3ccc(C(F)(F)F)cc3)ccc21
9 | 7.7 | 226 | 3820 | O=C(O)Cc1csc2cc(OCc3cc(-c4ccc(Cl)cc4)on3)ccc12
10 | 11 | 305 | 261 | O=C(O)Cc1csc2cc(OCc3cc(-c4ccc(C(F)(F)F)cc4)on3)ccc12
11 | 91 | 2810 | 562 | O=C(O)Cn1ccc2cc(OCc3ccc(Oc4ccc(C(F)(F)F)cc4)cc3)ccc21
12 | 662 | 3120 | > 10000 | O=C(O)Cc1coc2cc(OCc3ccccc3COc3ccc(C(F)(F)F)cc3)ccc12
13 | 97 | 2360 | 1350 | O=C(O)Cc1csc2cc(OCc3cc(-c4ccc(C(F)(F)F)cc4)on3)cc(Cl)c12
14 | 375 | 6360 | 3840 | O=C(O)Cc1csc2cc(OCc3cc(-c4ccc(Cl)cc4)on3)cc(Cl)c12
15 | 13 | 254 | 179 | O=C(O)Cn1ccc2cc(OCc3cccc(COc4ccc(C(F)(F)F)cc4)c3)ccc21
16 | 37 | 561 | 1470 | Cc1cc(OCc2cc(-c3ccc(C(F)(F)F)cc3)on2)cc2scc(CC(=O)O)c12
17 | 81 | 323 | 2380 | O=C(O)Cc1coc2cc(OCc3cc(-c4ccc(Cl)cc4)on3)ccc12
18 | 31 | 1390 | 835 | O=C(O)Cn1ccc2cc(OCc3cc(-c4ccc(C(F)(F)F)cc4)on3)ccc21
19 | 237 | – | 683 | Cc1cc2c(CC(=O)O)csc2cc1OCc1sc(-c2ccc(C(F)(F)F)cc2)nc1C
20 | 14 | 243 | 679 | Cc1nc(-c2ccc(C(F)(F)F)cc2)sc1COc1ccc2c(CC(=O)O)coc2c1
21 | 37 | 656 | 5810 | Cc1cc2c(CC(=O)O)csc2cc1OCc1cc(-c2ccc(Cl)cc2)on1
22 | – | – | 963 | O=C(O)Cc1csc2cc(OCc3cccc(COc4ccc(C(F)(F)F)cc4)c3)ccc12
23 | 25 | 1610 | 1420 | O=C(O)Cc1coc2cc(OCc3cc(-c4ccc(C(F)(F)F)cc4)on3)ccc12
24 | 23 | 638 | 311 | Cc1cc(OCc2cc(-c3ccc(Cl)cc3)on2)cc2scc(CC(=O)O)c12
25 | – | – | 482 | Cc1nc(-c2ccc(C(F)(F)F)cc2)sc1COc1ccc2c(CC(=O)O)csc2c1
26 | 81 | 3440 | 2380 | O=C(O)Cc1coc2cc(OCc3ccc(COc4ccc(C(F)(F)F)cc4)cc3)ccc12
